Where two headings read alike, the source gives them in different places.
Experiments:
Assay type in all cases: cell-based
[1] = tested on: herpes simplex virus type 1 (HF strain); experiment: Control of CPE (cytopathic effect) manifestation in vero cells; design: key to Cytopathic effect [CPE] (3days) Average / Cytopathic effect [CPE] (5days) Average / Cytopathic effect [CPE] (6days) Average: CPE score: 0 none, 0.5 minute spots, 1 = 25%, 2 = 50%, 3 = ≥75% cells; key to Cytopathic effect [CPE] (3days) △CPE / Cytopathic effect [CPE] (5days) △CPE / Cytopathic effect [CPE] (3days) ΔCPE / Cytopathic effect [CPE] (6days) ΔCPE: ΔCPE = difference of average CPE score (0–3 scale) from control; settings: 100 μg/ml
Experimental: (§1) In vitro antiviral activity of Compound A against herpes simplex virus type 1 (HF strain) Compound A was tested for antiviral effect by the following two methods.
(§2) Vero cells cultured and grown in a monolayer on microplates to test for cytopathic effect due to viral infection, with solutions of Compound A diluted to varying ratios and solutions of virus diluted to varying ratios added severally thereto in a volume of 0.1 ml, were cultured under the conditions of 5% CO₂ and 37°C and were examined for CPE manifestation under a microscope. The observation was continued for five to six days.
(§3) The degree of CPE brought about by viral infection was rated on the five-point scale, wherein 3 stands for CPE observed on not less than 75% of cultured cells, 2 for CPE observed on 50% of cultured cells, 1 for CPE observed on 25% of cultured cells, 0.5 for occurrence of one to two extremely minute DPE spots, and 0 for perfect absence of recognizable CPE. The CPE scores obtained at the four holes in each microplate were averaged and the difference of the average from the average obtained in the control (omitting the treatment with a chemical) was reported as ΔCPE.
(§4) In vitro antiviral effect of Compound A against herpes simplex virus type 1 (HF strain) The test was carried out by following the procedure of Example 3.

[2] = tested on: herpes simplex virus type 1 (HF strain); experiment: 50% Tissue culture infective dose (TCID50), Read-Munch method, negative logarithm of virus dilution
Experimental: as §1
(§5) The amount of virus infecting 50% of tissues (TCID₅₀) was determined by the Read-Munch method and expressed in negative logarithm of the maximum radio of dilution of virus. The difference of the amount thus determined from the amount found in the control (omitting the treatment with a chemical) was reported as ΔTCID₅₀. A sample whose ΔCPE's found on the last day of observation and on each of the days spent for the observation exceeded 1.0 was evaluated as effective.
as §4

[3] = tested on: herpes simplex virus type 2 (169 strain); experiment: as above; design: key to Cytopathic effect [CPE] (5days) TCID50 / Cytopathic effect [CPE] (3days) TCID50 / Cytopathic effect [CPE] (6days) TCID50: negative log of maximum virus dilution infecting 50% of tissues; settings: HSV-2 (169); for log reduction at 100 µg/mL: difference from control
Experimental: as §5
In vitro antiviral activity of Compound A against herpes simplex virus type 2 (169 strain) The test was carried out by following the procedure of Example 3.

[4] = tested on: herpes simplex virus type 1 (KOS strain); experiment: Control of CPE (cytopathic effect) manifestation in vero cells; settings: 100 μg/ml, HSV-1 (KOS), Example 7
Experimental: as §2, §3
(§6) Antiviral activity of Compound A and Compound B against herpes simplex virus type 1 (KOS strain) The test was carried out by following the procedure of Example 3.

[5] = tested on: herpes simplex virus type 1 (KOS strain); experiment: 50% Tissue culture infective dose (TCID50), Read-Munch method, negative logarithm of virus dilution; design: key to Cytopathic effect [CPE] (5days) TCID50 / Cytopathic effect [CPE] (3days) TCID50: TCID50 as negative log of maximum virus dilution ratio
Experimental: as §5, §6

[6] = tested on: herpes simplex virus type 1 (KOS strain); experiment: One-step growth of virus, plaque assay with vero cells; settings: 100 μg/ml, 24 hours; for inhibition at 100 µg/mL / log reduction at 100 µg/mL: Human alphaherpesvirus 1, Vero, 24 h; for inhibition at 100 µg/mL: read-out: Intracellular virus Control ratio %; for log reduction at 100 µg/mL: read-out: Intracellular virus Control ratio -logT/C
Experimental: Antiviral activity of Compound A and Compound B against one-step growth of herpes simplex virus type 1 (KOS strain) Cells grown in a monolayer, with a sample of a given compound diluted in a varying ratio added, were pretreated for 15 minutes. Then, the pretreated cells were infected with the herpes simplex virus type 1 (KOS strain) at an infecting ratio of 0.25 and left standing for 24 hours. At the end of the standing, the intracellular and extracellular amounts of virus were determined by the plaque assay with vero cells.

[7] = HSV-1 (HF strain), Example 5, difference from control
[8] = HSV-1 (HF), Example 3, difference from control
[9] = 100 μg/ml, HSV-1 (HF strain), Example 5
[10] = 100 μg/ml, HSV-1 (HF), Example 3
[11] = 100 μg/ml, HSV-1 (KOS), Example 7

SMILES: Nc1nc2c(ncn2COCCO)c(=O)[nH]1 [ACV, acyclovir, reference compound]
- Cytopathic effect [CPE] (3days) Average ([1]; HSV-1 (HF strain), Example 5): 0.875
- Cytopathic effect [CPE] (6days) Average ([1]; HSV-1 (HF strain), Example 5): 1.0
- Cytopathic effect [CPE] (3days) ΔCPE [1, 7]: 1.875
- Cytopathic effect [CPE] (6days) ΔCPE [1, 7]: 2.0
- Cytopathic effect [CPE] (3days) Average ([1]; HSV-1 (HF), Example 3): 0
- Cytopathic effect [CPE] (5days) Average ([1]; HSV-1 (HF), Example 3): 0
- Cytopathic effect [CPE] (3days) △CPE [1, 8]: 1.5
- Cytopathic effect [CPE] (5days) △CPE [1, 8]: 1.75
- Cytopathic effect [CPE] (3days) TCID50 [2, 9]: 5.5
- Cytopathic effect [CPE] (6days) TCID50 [2, 9]: 4.3
- Cytopathic effect [CPE] (3days) TCID50 [2, 10]: 3.5
- Cytopathic effect [CPE] (5days) TCID50 [2, 10]: 3.5
- log reduction at 100 µg/mL ([2]; Human alphaherpesvirus 1, 72 h, read-out: Cytopathic effect [CPE] (3days) ΔTCID50): 0.8
- log reduction at 100 µg/mL ([2]; Human alphaherpesvirus 1, 72 h, 100 μg/ml, HSV-1 (HF), Example 3, difference from control, read-out: Cytopathic effect [CPE] (3days) △TCID50): 2.5
- log reduction at 100 µg/mL ([2]; Human alphaherpesvirus 1, 120 h, 100 μg/ml, HSV-1 (HF), Example 3, difference from control, read-out: Cytopathic effect [CPE] (5days) △TCID50): 2.5
- log reduction at 100 µg/mL ([2]; Human alphaherpesvirus 1, 144 h, read-out: Cytopathic effect [CPE] (6days) ΔTCID50): 2
- Cytopathic effect [CPE] (3days) TCID50 ([3]; 100 μg/ml, Example 4): 3.5
- Cytopathic effect [CPE] (5days) TCID50 ([3]; 100 μg/ml, Example 4): 3.5
- Cytopathic effect [CPE] (3days) TCID50 ([3]; 100 μg/ml, Example 6): < 3.5
- Cytopathic effect [CPE] (6days) TCID50 ([3]; 100 μg/ml, Example 6): 3.5
- log reduction at 100 µg/mL ([3]; Human alphaherpesvirus 2, 72 h, read-out: Cytopathic effect [CPE] (3days) △TCID50, 100 μg/ml, Example 4): 3
- log reduction at 100 µg/mL ([3]; Human alphaherpesvirus 2, 72 h, read-out: Cytopathic effect [CPE] (3days) △TCID50, 100 μg/ml, Example 6): > 3.2
- log reduction at 100 µg/mL ([3]; Human alphaherpesvirus 2, 120 h, read-out: Cytopathic effect [CPE] (5days) △TCID50, 100 μg/ml, Example 4): 3
- log reduction at 100 µg/mL ([3]; Human alphaherpesvirus 2, 144 h, read-out: Cytopathic effect [CPE] (6days) △TCID50, 100 μg/ml, Example 6): 3.2
- Cytopathic effect [CPE] (3days) Average [4]: 0
- Cytopathic effect [CPE] (5days) Average [4]: 0
- Cytopathic effect [CPE] (3days) △CPE ([4]; difference from control): 2.0
- Cytopathic effect [CPE] (5days) △CPE ([4]; difference from control): 3.0
- Cytopathic effect [CPE] (3days) TCID50 [5, 11]: 3.5
- Cytopathic effect [CPE] (5days) TCID50 [5, 11]: 3.5
- log reduction at 100 µg/mL ([5]; Human alphaherpesvirus 1, 72 h, read-out: Cytopathic effect [CPE] (3days) △TCID50): 2
- log reduction at 100 µg/mL ([5]; Human alphaherpesvirus 1, 120 h, read-out: Cytopathic effect [CPE] (5days) △TCID50): 2.5
- Intracellular virus Average [6]: 8.50×10^2 /dish
- inhibition at 100 µg/mL ([6]; extracellular virus): > 99.9%
- log reduction at 100 µg/mL ([6]; extracellular virus): 5.78
- inhibition at 100 µg/mL [6]: > 99.9%
- log reduction at 100 µg/mL [6]: 5.68

Source: EP0450065A1, “ANTIVIRAL AGENT” (priority 1988, dated 1990)
